One data set can be described thus: clinical. The conditions noted are these: human, in vivo, 90 mg.
Data set [1] in a line: Food effect analysis of Test Formulation (Fasted Study vs Fed Study). The settings on record: Test Formulation single dose, least-squares geometric mean. It counts as in vivo, human. The protocol:
Objective: The objective of this analysis was to investigate the effect of food on the single-dose PK of Test Formulation using fasted and fed PK data from two studies, referred to as “Fasted Study” and “Fed Study,” respectively below.
Methodology. Since the PK parameters following the oral administration of Test Formulation in fasting and fed conditions were obtained from two different studies (Fasted Study and Fed Study, respectively), the PK data were analyzed using an analysis of variance (ANOVA), which considered the data as if they were collected in a parallel design.
Both studies were fully replicate studies and therefore subjects were dosed with Test Formulation on two occasions. The PK population in this analysis included subjects who received Test Formulation on two occasions; subjects who received Test Formulation only once were not included in this analysis.
In the current analysis, data from the PK population of the Fasted Study and Fed Study were considered “Reference” Treatment and “Test” Treatment, respectively.
For each parameter, the value used for the subject was the geometric mean of the two values that were available for each subject. The use of geometric means is consistent with the assumption that PK parameters are In normally distributed. Subjects with only one period of data were not included in the ANOVA, as this would incorrectly imply that singular data have the same weight as subjects with replicate values for the parameter.
In the Fasted Study, 51 subjects received Test Formulation on at least one occasion under fasting conditions, of whom 44 received Test Formulation on both occasions.
In the Fed Study, 32 subjects received Test Formulation on at least one occasion under fed conditions, of whom 27 received Test Formulation on both occasions.

For data set [2] the following is noted: within and between patients; cited from earlier work.

The structures appear in SMILES notation.

With `Cc1nc(Nc2ncc(C(=O)Nc3c(C)cccc3Cl)s2)cc(N2CCN(CCO)CC2)n1` [Dasatinib, dasatinib], the AUC(0-inf) in “clinical” turned out to be 434 ng·h/mL; in data set [1] (human, plasma, oral, fasting (n = 44), read-out: AUC(0-∞) LSmeans Fasted) it was 446 ng·h/mL; in data set [1] (human, plasma, oral, fed (n = 27), read-out: AUC(0-∞) LSmeans Fed), 431 ng·h/mL. Moreover, the Cmax turned out to be 138 ng/mL in the data set “clinical”; 127 ng/mL in data set [1] (human, plasma, oral, fasting (n = 44), read-out: Cmax LSmeans Fasted); 67 ng/mL in data set [1] (human, plasma, oral, fed (n = 27), read-out: Cmax LSmeans Fed). The “AUC(0-24 h) LSmeans Fed” value in data set [1] (fed (n = 27)) turned out to be 413 ng·h/mL. The AUC(0-t) in data set [1] (human, plasma, oral, fasting (n = 44), read-out: AUC(0-24 h) LSmeans Fasted) was 433 ng·h/mL. Besides, in data set [2], the “coefficient of variation of AUC” value is listed as “up to 100%”. Besides, the “coefficient of variation of Cmax” value in data set [2] is recorded as “up to 100%”.

Values taken from patent US20230121325A1, “FAST DISSOLVING PHARMACEUTICAL COMPOSITIONS” (XSPRAY PHARMA AB, priority 2021, published 2023).
